From publication PMC6150295, “Synthesis and Biological Evaluation of 2H-Indazole Derivatives: Towards Antimicrobial and Anti-Inflammatory Dual Agents” (Molecules : A Journal of Synthetic Chemistry and Natural …, 2017)
≈ marks a conversion by molar mass, not a printed value. Where two headings read alike, the source gives them in different places.

Experiments:
[1] = system: Entamoeba histolytica strain HM1-IMSS; test: In vitro antiprotozoal assay (trophozoite subculture method); assay type: cell-based; conditions: for IC50: Entamoeba histolytica, trophozoites, 48 h with compound then 48 h subculture without drug, read-out: IC50 (µM) E. histolytica
Description: (§1) The in vitro antiprotozoal assays against E. histolytica, G. intestinalis, and T. vaginalis of the 2-phenyl-2H-indazole and 2,3-diphenyl-2H-indazole derivatives were carried out following the method previously described. Metronidazole (MTZ) and albendazole (ABZ) were used as reference drugs. […] Similarly, compound 7, having a phenyl at position 2, has good activity against the three protozoa, ranking third in activity for T. vaginalis and forth against G. intestinalis and E. histolytica. […] These derivatives had groups H, COOCH3, Cl, and SO2CH3 at positions 2 and 3, substituents that induced the best response in 2-phenyl-2H-indazole derivatives. In addition, carboxylic acids 20 and 25 were of interest for comparative purposes with ester derivatives.
(§2) Trichomonas vaginalis strain GT3, Giardia intestinalis isolate IMSS:0981:1, and Entamoeba histolytica strain HM1-IMSS were used. Trophozoites of G. intestinalis were maintained in a TYI-S-33 medium supplemented with 10% calf serum and bovine bile. E. histolytica and T. vaginalis trophozoites were maintained in TYI-S-33 medium supplemented with 10% bovine serum. Briefly, 5 × 10^4 trophozoites of G. intestinalis or T. vaginalis, or 6 × 10^3 trophozoites of E. histolytica were incubated for 48 h at 37 °C with different concentrations of the compound to be tested, each added as solutions in DMSO. As a negative control, parasite cultures received an equivalent amount of DMSO only, while albendazole and metronidazole were included as positive controls. At the end of the treatment period, the cells were washed and subcultured for another 48 h in a fresh medium to which no drug was added. […] Experiments were carried out in triplicate and repeated at least twice.

[2] = system: Giardia intestinalis isolate IMSS:0981:1; test: as above; assay type: cell-based; conditions: for IC50: Giardia duodenalis, trophozoites, 48 h with compound then 48 h subculture without drug, read-out: IC50 (µM) G. intestinalis
Description: as §1, §2

[3] = system: Trichomonas vaginalis strain GT3; test: as above; assay type: cell-based; conditions: for IC50: Trichomonas vaginalis, GT3, trophozoites, 48 h with compound then 48 h subculture without drug, read-out: IC50 (µM) T. vaginalis
Description: as §1, §2

[4] = system: Escherichia coli strain EDL933 (EHEC); test: Disk diffusion susceptibility test; assay type: cell-based; conditions: 5 mg per disc, 37 °C, 24 h
[5] = system: Escherichia coli strain 042 (EAEC); test: Disk diffusion susceptibility test; assay type: cell-based; conditions: 5 mg per disc, 37 °C, 24 h
[6] = system: Salmonella enterica serovar Typhi; test: Disk diffusion susceptibility test; assay type: cell-based; conditions: for Inhibition (positive / none) S. Typhi: 5 mg per disc, 37 °C, 24 h
[7] = system: Candida albicans; test: Disk diffusion susceptibility test; assay type: cell-based; conditions: for zone of inhibition at 5000 µg/disc: Candida albicans, read-out: Zone of inhibition at 5 mg per disc (mm) C. albicans
[8] = system: Candida glabrata; test: Disk diffusion susceptibility test; assay type: cell-based; conditions: for zone of inhibition at 5000 µg/disc: Nakaseomyces glabratus, read-out: Zone of inhibition at 5 mg per disc (mm) C. glabrata
[9] = target: T1, human recombinant cyclooxygenase-2 (Homo sapiens, UniProt P35354); test: COX inhibitor screening assay (Cayman kit); assay type: biochemical; conditions: tested at 10 µM
T1 construct: purchased Cayman Chemical 560131
T1 sequence (P35354 18-604): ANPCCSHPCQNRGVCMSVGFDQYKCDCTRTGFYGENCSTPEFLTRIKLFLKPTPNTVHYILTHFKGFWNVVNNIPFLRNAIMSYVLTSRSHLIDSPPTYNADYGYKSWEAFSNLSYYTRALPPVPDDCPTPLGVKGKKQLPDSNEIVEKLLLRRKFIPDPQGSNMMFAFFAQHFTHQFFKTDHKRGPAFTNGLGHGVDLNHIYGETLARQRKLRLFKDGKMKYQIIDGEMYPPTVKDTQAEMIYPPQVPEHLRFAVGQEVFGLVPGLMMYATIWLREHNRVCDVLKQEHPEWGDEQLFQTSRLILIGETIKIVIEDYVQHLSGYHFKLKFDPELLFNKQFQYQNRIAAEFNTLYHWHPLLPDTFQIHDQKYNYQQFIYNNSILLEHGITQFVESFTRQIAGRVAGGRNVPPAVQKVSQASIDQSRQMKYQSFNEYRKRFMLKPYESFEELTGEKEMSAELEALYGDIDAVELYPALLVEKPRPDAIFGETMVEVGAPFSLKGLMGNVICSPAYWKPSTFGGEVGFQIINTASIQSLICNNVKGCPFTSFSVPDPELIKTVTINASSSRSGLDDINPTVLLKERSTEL
Description: Additionally, molecular docking studies using AutoDock Vina software (TSRI, La Jolla, CA, USA) were performed to aid in the interpretation of the experimental results. […] Nevertheless, these compounds represent an interesting starting point towards the design of new antiparasitic compounds with an additional COX-2 inhibitory property.
Assays were carried out by duplicate following the instructions provided by the manufacturer.

[10] = system: C. albicans; test: Minimum inhibitory concentration (antimycotic effect); assay type: cell-based; conditions: Candida albicans
[11] = system: C. glabrata; test: as above; assay type: cell-based, Candida glabrata; conditions: Nakaseomyces glabratus
[12] = Cytotoxicity MTT assay; assay type: cell-based, human; conditions: human, 10 µM, 48 h exposure
Description: (§3) Biological assays on HaCaT and HeLa cell lines were conducted to gain insight into the cytotoxic effects of these derivatives on human cells, as compared with the effects observed on protozoa. Cellular viability was determined by MTT (3-(4,5-dimethylthiazol-2-yl)-2,5-diphenyltetrazolium bromide) assay. Compounds 18 and 23 were chosen considering their antiprotozoal and anticandidal effect, in addition to their COX-2 inhibitory activity. Additionally, compound 16 was considered as an unsubstituted reference.
(§4) HeLa (human cervical carcinoma) and HaCaT (immortalized human keratinocytes) cells were grown in DMEM (Invitrogen Corporation, Carlsbad, CA, USA) supplemented with 10% FBS (BioWest, Riverside, MO, USA), and maintained in standard culture conditions (37 °C, 95% humidity, and 5% CO2). Cells were allowed to grow to a density of 80% and then were harvested using sterile PBS/EDTA (pH 7.4) before starting every experiment. Cells were seeded in 96-well plates (7000 cells/well in 200 µL of DMEM). After 24 h the cells were exposed to test compounds dissolved in DMSO (J.T. Baker, Phillipsburg, NJ, USA) at different concentrations and diluted in 50 µL of DMEM, to reach 250 µL in the well. The exposure time was 48 h, and then viability was determined by MTT assay. The absorbance of formazan was determined for each well and its viability was related to the vehicle (100%). The IC50 was calculated from dose-response curve by non-linear fit using OriginPro 7.0 software (RockWare, Golden, CO, USA).

[13] = system: HaCaT cells; test: Cytotoxicity MTT assay; assay type: cell-based, human; conditions: Homo sapiens, HaCaT, 48 h exposure
Description: as §3, §4

[14] = system: HeLa cells; test: Cytotoxicity MTT assay; assay type: cell-based, human; conditions: Homo sapiens, 48 h exposure
Description: as §3, §4

[15] = read-out: % Viability (10 µM) HaCaT Cells
[16] = read-out: % Viability (10 µM) HeLa Cells
[17] = positive control, ketoconazole 50 µg
[18] = 16 relative to 7, 20 compared to 13

SMILES	IC50 [1] [µM]	IC50 [2] [µM]	IC50 [3] [µM]	Inhibition (positive / none) E. coli 933 [4]	Inhibition (positive / none) E. coli 042 [5]	Inhibition (positive / none) S. Typhi [6]	Inhibition (positive / none) C. albicans ([7]; 5 mg per disc, 37 °C, 24 h)	Inhibition (positive / none) C. glabrata ([8]; 5 mg per disc, 37 °C, 24 h)	inhibition at 10 µM [9] [%]	melting point [°C]	MIC [10] [mM]	MIC [11] [mM]	viability at 48 h, 10 µM [12, 15] [%]	viability at 48 h, 10 µM [12, 16] [%]	also measured
CS(=O)(=O)c1ccc(-n2nc3ccccc3c2-c2ccccc2)cc1 [Compound 21, 2-(4-(Methylsulfonyl)phenyl)-3-phenyl-2H-indazole]	0.208 ± 0.0061	0.124 ± 0.0122	0.214 ± 0.0101	-	-	-	-	-	44.5 ± 2.65	101.8 to 102.7					
COC(=O)c1ccc(-c2c3ccccc3nn2-c2ccccc2)cc1 [Compound 23, Methyl 4-(2-phenyl-2H-indazol-3-yl) benzoate]	0.0731 ± 0.0086	0.119 ± 0.0086	0.143 ± 0.0043	-	-	-	+	+	36.4 ± 1.7	164.5 to 166.3	3.81 (≈ 1250 µg/mL)	15.2 (≈ 5000 µg/mL)	97.8 ± 5.19	93.7 ± 7.48	zone of inhibition at 5000 µg/disc [7]: 13 mm; zone of inhibition at 5000 µg/disc [8]: 4 mm
CC(=O)N1CCN(c2ccc(OCC3COC(Cn4ccnc4)(c4ccc(Cl)cc4Cl)O3)cc2)CC1 (stereo not shown) [Ketoconazole, reference compound]											0.045 (≈ 23.9 µg/mL)	0.079 (≈ 42 µg/mL)			Inhibition (positive / none) C. albicans [7, 17]: +; Inhibition (positive / none) C. glabrata [8, 17]: +
CS(=O)(=O)c1ccc(-c2c3ccccc3nn2-c2ccccc2)cc1 [Compound 26, 3-(4-(Methylsulfonyl)phenyl)-2-phenyl-2H-indazole]	0.0459 ± 0.0081	0.106 ± 0.0081	0.184 ± 0.0162	-	-	-	-	-	41.2 ± 5.93	206.9 to 208.8					improvement in potency against E. histolytica relative to the analog ([1]; 17 compared with 8, 20 compared to 13, 26 compared to 21): four-fold
COC(=O)c1ccc(-n2nc3ccccc3c2-c2ccccc2)cc1 [Compound 18, Methyl 4-(3-phenyl-2H-indazol-2-yl) benzoate]	0.0502 ± 0.0022	0.0959 ± 0.0022	0.102 ± 0.0151	-	-	-	+	+	50 ± 9.49	152.4 to 154.9	3.81 (≈ 1250 µg/mL)	15.2 (≈ 5000 µg/mL)	96.2 ± 4.14	94.1 ± 3.31	times more active than metronidazole against G. intestinalis ([2]; ratio of IC50 values): 12.8 times; zone of inhibition at 5000 µg/disc [7]: 10 mm; zone of inhibition at 5000 µg/disc [8]: 3 mm
c1ccc(-c2c3ccccc3nn2-c2ccccc2)cc1 [Compound 16, 2,3-Diphenyl-2H-indazole]	0.303 ± 0.0105	0.0518 ± 0.0052	0.0573 ± 0.0026	-	-	-	-	-		107.4 to 107.9			95 ± 2.44	93 ± 4.57	improvement in potency against G. intestinalis relative to the analog [2, 18]: two-fold; improvement in potency against T. vaginalis relative to the analog [3, 18]: two-fold; % of Inhibition of COX-2 [9]: Inactive; IC50 [13]: 93.7 ± 17.3 µM; IC50 [14]: 125 ± 29.6 µM
c1ccc(-n2cc3ccccc3n2)cc1 [Compound 7, 2-Phenyl-2H-indazole]	0.0798 ± 0.0036	0.113 ± 0.0218	0.118 ± 0.0218	-	-	+	-	-		81.2 to 81.6					zone of inhibition at 5000 µg/disc ([6]; Salmonella enterica, TYPHI, read-out: Zone of inhibition at 5 mg per disc (mm) S. Typhi): 9 mm; % of Inhibition of COX-2 [9]: Inactive
